Structures are written as SMILES. Counter-ions that a name gives are not always drawn.

The target of one assay is sigma 1 binding site (Cavia porcellus, UniProt Q60492). As to the kind of experiment: biochemical.
The target in the next assay is T1, sigma 2 binding site (Rattus norvegicus, UniProt Q5U3Y7).
T1 sequence (Q5U3Y7 1-176): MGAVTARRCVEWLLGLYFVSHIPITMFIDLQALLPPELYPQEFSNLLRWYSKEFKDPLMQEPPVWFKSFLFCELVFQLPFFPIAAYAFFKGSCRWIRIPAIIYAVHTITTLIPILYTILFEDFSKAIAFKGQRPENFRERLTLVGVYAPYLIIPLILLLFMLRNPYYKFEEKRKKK
As to the kind of experiment: Sigma 2 selective receptor binding inhibition assay with [^3H]-di-o-tolylguanidine. The conditions noted are these: for S2/S1 Ratio: ratio of Sigma 2 Ki to Sigma 1 Ki.

The next assay has as its target T2, Dopamine D2 (Rattus norvegicus, UniProt P61169).
T2 construct: dopaminergic receptors was also measured using rat striata; from tissue; host or cells: rat striata
Briefly: Binding to dopaminergic receptors using rat striata (method of Terai et al.). As for the experimental part: The binding of these compounds to dopaminergic receptors was also measured using rat striata according to the method described by Terai et al. (M. Terai, et al., Eur. J. Pharmacol. 1989, 173, 177).

Sequence of sigma 1 binding site (Q60492 whole entry): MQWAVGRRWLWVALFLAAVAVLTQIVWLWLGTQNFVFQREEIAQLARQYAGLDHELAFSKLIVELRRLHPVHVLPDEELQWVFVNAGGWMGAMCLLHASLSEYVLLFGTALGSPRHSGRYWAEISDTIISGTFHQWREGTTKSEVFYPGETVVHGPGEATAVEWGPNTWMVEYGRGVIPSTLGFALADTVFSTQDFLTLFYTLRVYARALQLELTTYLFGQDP
T2 sequence (P61169 whole entry): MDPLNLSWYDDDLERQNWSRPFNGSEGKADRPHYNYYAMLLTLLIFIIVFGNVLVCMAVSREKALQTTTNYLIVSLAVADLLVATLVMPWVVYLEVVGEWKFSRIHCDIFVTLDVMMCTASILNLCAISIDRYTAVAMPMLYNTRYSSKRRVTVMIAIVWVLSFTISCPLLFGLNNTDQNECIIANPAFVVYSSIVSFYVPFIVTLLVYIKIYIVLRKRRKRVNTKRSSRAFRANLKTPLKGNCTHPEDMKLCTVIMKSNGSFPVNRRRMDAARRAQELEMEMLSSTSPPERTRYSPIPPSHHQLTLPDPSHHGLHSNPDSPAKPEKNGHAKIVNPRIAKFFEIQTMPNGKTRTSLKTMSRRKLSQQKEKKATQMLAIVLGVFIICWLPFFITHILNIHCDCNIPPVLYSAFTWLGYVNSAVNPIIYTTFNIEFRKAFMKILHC

One may read the Ki as the equilibrium dissociation constant of an inhibitor or competing ligand from its target. Turning to `CN1c2ccccc2N(CC2CCN(CC(O)c3ccc(F)cc3)CC2)S(=O)(=O)c2ccccc21` (racemic) [Example 7, (R,S)-1-(4-Fluorophenyl)-2-[4-(11-methyl-6,11-dihydrodibenzo[c,f][1,2,5]thiadiazepin-6-ylmethyl)piperidin-1-yl]ethanol S,S-dioxide hydrochloride], the figures for the inhibition constant (Ki) at sigma 1 binding site, at sigma 2 binding site and at Dopamine D2 were 540 nM, 4 nM and 320 nM, respectively. In addition, the “S2/S1 Ratio” value on sigma 2 binding site stood at 0.007.

For the molecule `COc1ccc2c(c1)N(CC1CCN(CC(O)C34CC5CC(CC(C5)C3)C4)CC1)S(=O)(=O)c1cc(Cl)ccc1O2` (racemic) [Example 20, hydrochloride], the Ki on sigma 1 binding site was 3500 nM; on sigma 2 binding site it was 10 nM; at Dopamine D2 it was 790 nM. In addition, at sigma 2 binding site, the “S2/S1 Ratio” value came out at 0.003.

In the case of `O=S1(=O)c2ccccc2Nc2ccc(Cl)cc2N1CC1CCN(CC(O)C23CC4CC(CC(C4)C2)C3)CC1` (racemic) [Example 8, (R,S)-1-(1-Adamantyl)-2-[4-(8-chloro-6,11-dihydrodibenzo[c,f][1,2,5]thiadiazepin-6-ylmethyl)piperidin-1-yl]ethanol S,S-dioxide hydrochloride], the Ki on sigma 1 binding site was 630 nM; on sigma 2 binding site, 16 nM; at Dopamine D2 it was 410 nM. The “S2/S1 Ratio” value at sigma 2 binding site is given as 0.03.

In the case of `Cc1ccc(C(O)CN2CCC(CN3c4ccccc4Oc4ccccc4S3(=O)=O)CC2)cc1` (racemic) [Example 13, (R,S)-1-(4-Methylphenyl)-2-[4-(6H-dibenzo[b,f][1,4,5]oxathiazepin-6-ylmethyl)piperidin-1-yl]ethanol S,S-dioxide hydrochloride], the Ki on sigma 1 binding site is 89 nM; on sigma 2 binding site it was 1.6 nM; on Dopamine D2 it was 180 nM. Further, on sigma 2 binding site, the “S2/S1 Ratio” value came out at 0.02.

Regarding `O=C(CN1CCC(CN2c3ccccc3Nc3ccccc3S2(=O)=O)CC1)C12CC3CC(CC(C3)C1)C2` [Example 1, 6-[[1-[2-(1-Adamantyl)-2-oxoethyl]-4-piperidinyl]methyl]-6,11-dihydrodibenzo[c,f][1,2,5]thiadiazepine 5,5-dioxide·hydrochloride], the Ki on sigma 1 binding site was 150 nM; at sigma 2 binding site it was 5 nM; at Dopamine D2, > 1000 nM. The “S2/S1 Ratio” value at sigma 2 binding site came out at 0.03.

As to `Cc1ccccc1C(O)CN1CCC(CN2c3ccccc3Nc3ccccc3S2(=O)=O)CC1` (racemic) [Example 5, (R,S)-1-(2-Methylphenyl)-2-[4-(6,11-dihydrodibenzo[c,f][1,2,5]thiadiazepin-6-ylmethyl)piperidin-1-yl]ethanol S,S-dioxide hydrochloride], the Ki is 71 nM at sigma 1 binding site, 13 nM on sigma 2 binding site and 79 nM on Dopamine D2. Moreover, the “S2/S1 Ratio” value on sigma 2 binding site came to 0.2.

For `O=S1(=O)c2ccccc2Nc2ccccc2N1CC1CCN(CC(O)c2ccc(F)cc2F)CC1` (racemic) [Example 3, (R,S)-1-(2,4-Difluorophenyl)-2-[4-(6,11-dihydrodibenzo[c,f][1,2,5]thiadiazepin-6-yl-methyl)piperidin-1-yl]ethanol S,S-dioxide hydrochloride], the Ki on sigma 1 binding site is 280 nM; on sigma 2 binding site, 16 nM; at Dopamine D2 it was 700 nM. The “S2/S1 Ratio” value at sigma 2 binding site was determined as 0.06.

In the case of `CN(CCCCN1c2ccccc2Oc2ccc(Cl)cc2S1(=O)=O)CC(O)c1ccc(F)cc1` (racemic) [Example 24, (R,S)-1-(4-Fluorophenyl)-2-[N-methyl-N-[4-(3-chloro-6H-dibenzo[b,f][1,4,5]oxathiazepin-6-yl)butyl]amino]ethanol S,S-dioxide hydrochloride], the inhibition constant Ki at sigma 1 binding site was determined as 140 nM; on sigma 2 binding site, 19 nM; on Dopamine D2, 800 nM. For the same molecule, the “S2/S1 Ratio” value on sigma 2 binding site amounted to 0.1.

Turning to `COc1ccc2c(c1)N(CC1CCN(CC(O)c3ccc(F)cc3)CC1)S(=O)(=O)c1ccccc1O2` (racemic) [Example 22, (R,S)-1-(4-Fluorophenyl)-2-[4-(8-methoxy-6H-dibenzo[b,f][1,4,5]oxathiazepin-6-ylmethyl)piperidin-1-yl]ethanol S,S-dioxide hydrochloride], the Ki on sigma 1 binding site came to 70 nM; on sigma 2 binding site, 3.7 nM; on Dopamine D2, 870 nM. At sigma 2 binding site, the “S2/S1 Ratio” value amounted to 0.05.

As for `O=S1(=O)c2cc(Cl)ccc2Oc2ccccc2N1CC1CCN(CC(O)c2ccc(F)cc2)CC1` (racemic) [Example 16, (R,S)-1-(4-Fluorophenyl)-2-[4-(3-chloro-6H-dibenzo[b,f][1,4,5]oxathiazepin-6-ylmethyl)piperidin-1-yl]ethanol S,S-dioxide hydrochloride], the Ki at sigma 1 binding site was found to be 85 nM; at sigma 2 binding site, 1.1 nM; on Dopamine D2, 210 nM. At sigma 2 binding site, the “S2/S1 Ratio” value came out at 0.01.

For `CN1c2ccccc2N(CC2CCN(CC(O)C34CC5CC(CC(C5)C3)C4)CC2)S(=O)(=O)c2ccccc21` (racemic) [Example 6, (R,S)-1-(1-Adamantyl)-2-[4-(11-methyl-6,11-dihydrodibenzo[c,f][1,2,5]thiadiazepin-6-ylmethyl)piperidin-1-yl]ethanol S,S-dioxide hydrochloride], the Ki at sigma 1 binding site amounted to 2100 nM; at sigma 2 binding site, 2.7 nM; at Dopamine D2, 170 nM. Moreover, the “S2/S1 Ratio” value at sigma 2 binding site came to 0.001.

Take `COc1ccc(C(O)CN2CCC(CN3c4ccccc4Oc4ccccc4S3(=O)=O)CC2)cc1` (racemic) [Example 12, (R,S)-1-(4-Methoxyphenyl)-2-[4-(6H-dibenzo[b,f][1,4,5]oxathiazepin-6-ylmethyl)piperidin-1-yl]ethanol S,S-dioxide hydrochloride]: the Ki came out at 78 nM on sigma 1 binding site, 7.1 nM at sigma 2 binding site and 280 nM at Dopamine D2. For the same molecule, the “S2/S1 Ratio” value at sigma 2 binding site came to 0.09.

Turning to `O=S1(=O)c2cc(Cl)ccc2Oc2ccccc2N1CC1CCN(CC(O)C23CC4CC(CC(C4)C2)C3)CC1` (racemic) [Example 14, (R,S)-1-(1-Adamantyl)-2-[4-(3-chloro-6H-dibenzo[b,f][1,4,5]oxathiazepin-6-ylmethyl)piperidin-1-yl]ethanol S,S-dioxide hydrochloride], the Ki at sigma 1 binding site amounted to 380 nM; on sigma 2 binding site, 3.1 nM; on Dopamine D2, 120 nM. The “S2/S1 Ratio” value at sigma 2 binding site was determined as 0.008.

Take `O=S1(=O)c2cc(Cl)ccc2Oc2ccccc2N1CC1CCN(CC(O)c2ccc(C(F)(F)F)cc2)CC1` (racemic) [Example 18, (R,S)-1-(4-Trifluoromethylphenyl)-2-[4-(3-chloro-6H-dibenzo[b,f][1,4,5]oxathiazepin-6-ylmethyl)piperidin-1-yl]ethanol S,S-dioxide hydrochloride]: the values for the Ki on sigma 1 binding site, on sigma 2 binding site and at Dopamine D2 were 1100 nM, 3.2 nM and 350 nM, respectively. Moreover, the “S2/S1 Ratio” value at sigma 2 binding site was 0.003.

As to `O=S1(=O)c2ccccc2Oc2ccccc2N1CC1CCN(CC(O)c2ccc(Cl)cc2)CC1` (racemic) [Example 11, (R,S)-1-(4-Chlorophenyl)-2-[4-(6H-dibenzo[b,f][1,4,5]oxathiazepin-6-ylmethyl)piperidin-1-yl]ethanol S,S-dioxide hydrochloride], the Ki at sigma 1 binding site is 43 nM; on sigma 2 binding site, 2.3 nM; at Dopamine D2 it was 200 nM. The “S2/S1 Ratio” value at sigma 2 binding site turned out to be 0.05.

As for `COc1ccc2c(c1)N(CC1CCN(CC(O)c3ccc(F)cc3)CC1)S(=O)(=O)c1cc(Cl)ccc1O2` (racemic) [Example 21, (R,S)-1-(4-Fluorophenyl)-2-[4-(3-chloro-8-methoxy-6H-dibenzo[b,f][1,4,5]oxathiazepin-6-ylmethyl)piperidin-1-yl]ethanol S,S-dioxide hydrochloride], the Ki is 420 nM at sigma 1 binding site, 9 nM on sigma 2 binding site and 820 nM on Dopamine D2. The “S2/S1 Ratio” value at sigma 2 binding site is recorded as 0.02.

For `O=S1(=O)c2cc(Cl)ccc2Oc2ccccc2N1CC1CCN(CC(O)c2ccc(OC(F)(F)F)cc2)CC1` (racemic) [Example 19, (R,S)-1-(4-Trifluoromethoxyphenyl)-2-[4-(3-chloro-6H-dibenzo[b,f][1,4,5]oxathiazepin-6-ylmethyl)piperidin-1-yl]ethanol S,S-dioxide hydrochloride], the inhibitory constant (Ki) on sigma 1 binding site amounted to 1200 nM; at sigma 2 binding site it was 8.4 nM; at Dopamine D2, 270 nM. The “S2/S1 Ratio” value at sigma 2 binding site amounted to 0.007.

`O=S1(=O)c2cc(Cl)ccc2Oc2ccccc2N1CC1CCN(CC(O)c2ccccc2)CC1` (racemic) [Example 15, (R,S)-1-Phenyl-2-[4-(3-chloro-6H-dibenzo[b,f][1,4,5]oxathiazepin-6-yl-methyl)piperidin-1-yl]ethanol S,S-dioxide hydrochloride]: the inhibition constant (Ki) at sigma 1 binding site was determined as 110 nM; on sigma 2 binding site, 1.3 nM; on Dopamine D2 it was 180 nM. Besides, the “S2/S1 Ratio” value at sigma 2 binding site is reported as 0.01.

In the case of `CN(CCCCN1c2ccccc2Oc2ccc(Cl)cc2S1(=O)=O)CC(O)C12CC3CC(CC(C3)C1)C2` (racemic) [Example 23, (R,S)-1-(1-Adamantyl)-2-[N-methyl-N-[4-(3-chloro-6H-dibenzo[b,f][1,4,5]oxathiazepin-6-yl)butyl]amino]ethanol S,S-dioxide hydrochloride], the figures for the Ki on sigma 1 binding site, on sigma 2 binding site and on Dopamine D2 were 1600 nM, 35 nM and 1100 nM, respectively. Moreover, the “S2/S1 Ratio” value at sigma 2 binding site stood at 0.02.

Consider `O=S1(=O)c2cc(Cl)ccc2Oc2ccccc2N1CC1CCN(CC(O)c2ccc3ccccc3c2)CC1` (racemic) [Example 17, (R,S)-1-(2-Naphthyl)-2-[4-(3-chloro-6H-dibenzo[[b,f][1,4,5]oxathiazepin-6-ylmethyl)piperidin-1-yl]ethanol S,S-dioxide hydrochloride], for which the inhibition constant Ki came to 510 nM on sigma 1 binding site, 4.2 nM at sigma 2 binding site and 350 nM on Dopamine D2. The “S2/S1 Ratio” value on sigma 2 binding site amounted to 0.008.

The values are drawn from EP0881220A1, “DIARYLSULTAM DERIVATIVES” (priority 1996, dated 1997).
